Entries after “also recorded” stand apart in the source; their conditions may differ.

For one test, the system named is Leu16 CAR-T cells. Nature of the test: Antigen-independent activation and exhaustion marker expression by flow cytometry, Leu16 CAR-T cells. Format: cell-based, human. To be noted: equivalent concentrations as for rituximab CAR-T cells. The source says:
(§1) FIG. 3A-G. Pharmacological modulation of Leu16 CAR-T cells modestly dampens tonic signaling while enhancing anti-tumor efficacy. (A) Pictorial representation of the correlation between tonic signaling-modulated rituximab CAR-T cells and in vivo anti-tumor efficacy. (B) Pictorial representation of pharmacological modulation strategy aimed to either increase or decrease Leu16 CAR tonic signaling; c-MYC (MYCi975) and SREBP (betulin) inhibition increased tonic signaling whereas mTORC1 (rapamycin) inhibition decreased tonic signaling in rituximab CAR-T cells. (C) % distribution of T-cell subtypes in CAR^+ T cells after 6 days of pharmacological modulation (left) and Tn/scm enrichment (right). […] (F) Tumor signal (in photons/sec/cm2/sr) in individual animals as quantified by bioluminescence imaging. […]
Antibody staining for flow-cytometry analysis. EGFRt expression was measured with biotinylated cetuximab (Eli Lilly; biotinylated in-house), followed by PE-conjugated streptavidin (Jackson ImmunoResearch #016-110-084). CAR expression was quantified by surface epitope staining using anti-Fc (Alexa Fluor 488, Jackson ImmunoResearch #709-546-098). […] T-cell subtype of CAR-T cells was evaluated by antibody staining for CD45RO (VioBlue®, clone REA611, Miltenyi #130-119-620) and CD62L (APC, clone DREG56, Invitrogen #17-0629-42) after 5-6 days of inhibitor culture (FIG. 1, FIG. 3). […]
Background: Flow cytometry measures light scatter and fluorescence of single cells or particles in a stream.

In another test the test system is Raji lymphoma. Briefly: Raji lymphoma model in NSG mice treated with inhibitor-treated Leu16 CAR-T cells. Format: in vivo. Particulars: Raji i.v., two doses of inhibitor-treated Leu16 CAR-T cells, vs vehicle-treated.
Description: as §1, with “(right). The bars in FIG. 3C, right graph, represent data from, EGFRt, Leu16-28z (vehicle), Leu16-28z (MYCi975), Leu16-28z (Betulin), and Leu16-28z (Rapamycin), respectively, from left to right. (D) Activation and exhaustion marker expression by CAR^+ T cells in the absence of antigen stimulation after 6 days of pharmacological modulation.” for “(right).”
In vivo studies. […] Tumor progression/regression was monitored with an IVIS Illumina III LT Imaging System (PerkinElmer). […]

The subject of the next test is rituximab CAR-T cells. Briefly: Antigen-independent CAR-T cell metabolic activity, rituximab CAR-T cells (data not shown). The test is classed as cell-based, human. From the text: Cell line generation and maintenance. HEK 293T and Raji cells were obtained from ATCC. Leu16 and rituximab scFv-expressing HEK293T cell lines were generated by retroviral transduction of HEK293T cells to express each scFv fused with EGFP via a 2A peptide, and EGFP+ cells were sorted by fluorescence-activated cell sorting (FACS) on a FACSAria (II) cell sorter (BD Bioscience) at the UCLA Flow Cytometry Core Facility. CD20+K562 cells were generated by transduction of K562 cells with a retroviral construct encoding full-length CD20. K562 cells with varying CD20 expression levels were generated by FACS sorting of CD20+K562 into bins of different antigen densities. CHLA-255-Luc-EGFP cells were generated by retroviral transduction of CHLA-255-Luc to express EGFP, and EGFP+ cells were enriched by FACS. HEK 293T cells were cultured in DMEM (HyClone) supplemented with 10% heat-inactivated FBS (HI-FBS; ThermoFisher). CHLA-255-Luc-EGFP cells were cultured in IMDM (ThermoFisher) with 10% HI-FBS. Primary human T cells, Raji, and K562 cells were cultured in RPMI-1640 (Lonza) with 10% HI-FBS. For CAR-T cells used in metabolomics studies, T cells were cultured in RPMI-1640 containing 2 g/L of 1,2-13C-glucose with 10% heat-inactivated dialyzed FBS (HI-dFBS).

For `C=C(C)[C@@H]1CC[C@]2(CO)CC[C@]3(C)[C@H](CC[C@@H]4[C@@]5(C)CC[C@H](O)C(C)(C)[C@@H]5CC[C@]43C)[C@@H]12` [betulin, Betulin], the tonic signaling entry in the test on Leu16 CAR-T cells is listed as “dampened; also recorded: significant decrease”. Also, the “in vivo functionality: tumor control and survival” value with Raji lymphoma is “prolonged tumor control and survival”. Besides, in the test on rituximab CAR-T cells, the “antigen-independent CAR-T cell metabolic activity” value is “increases”.

Turning to MYCi975, the tonic signaling entry with Leu16 CAR-T cells was “dampened”.

The values above are taken from US20250345426A1, “METHODS FOR MAKING AND USING THERAPEUTIC CELLS” (THE REGENTS OF THE UNIVERSITY OF CALIFORNIA, priority 2022, published 2025).
